In brackets after ≈: the same amount, converted by molar mass.
Legend:
[1] = test system: Trichophyton mentagrophytes; assay: Antimicrobial activity against Trichophyton mentagrophytes 445 after 72 hrs by broth microdilution test; format: functional; conditions: Trichophyton mentagrophytes, 445, 72 h
Candida albicans [2] = assay: Antimicrobial activity against Candida albicans ATCC 44859 after 24 hrs by broth microdilution test; format: functional; conditions: ATCC 44859, 24 h
Staphylococcus aureus [3] = assay: Antimicrobial activity against methicillin-resistant Staphylococcus aureus H 5996/08 after 24 hrs by broth microdilution method; format: functional; conditions: H 5996/08, 24 h
[4] = test system: Staphylococcus epidermidis; assay: Antimicrobial activity against Staphylococcus epidermidis H 6966/08 after 48 hrs by broth microdilution method; format: functional; conditions: H 6966/08, 48 h
[5] = Lipophilicity, log P of compound by RP-HPLC analysis; format: physicochemical
Candida tropicalis [6] = assay: Antimicrobial activity against Candida tropicalis 156 after 24 hrs by broth microdilution test; format: functional; conditions: Candida tropicalis, 156, 24 h
Aspergillus fumigatus [7] = assay: Antimicrobial activity against Aspergillus fumigatus 231 after 24 hrs by broth microdilution test; format: functional; conditions: Aspergillus fumigatus, 231, 24 h
Lichtheimia corymbifera [8] = assay: Antimicrobial activity against Absidia corymbifera 272 after 24 hrs by broth microdilution test; format: functional; conditions: Lichtheimia corymbifera, 272, 24 h
Staphylococcus aureus [9] = assay: Antimicrobial activity against Staphylococcus aureus CCM 4516/08 after 24 hrs by broth microdilution method; format: functional; conditions: CCM 4516/08, 24 h
[10] = test system: Staphylococcus epidermidis; assay: Antimicrobial activity against Staphylococcus epidermidis H 6966/08 after 24 hrs by broth microdilution method; format: functional; conditions: H 6966/08, 24 h
Pichia kudriavzevii [11] = assay: Antimicrobial activity against Candida krusei ATCC 6258 after 24 hrs by broth microdilution test; format: functional; conditions: ATCC 6258, 24 h
Staphylococcus aureus [12] = assay: Antimicrobial activity against Staphylococcus aureus CCM 4516/08 after 48 hrs by broth microdilution method; format: functional; conditions: CCM 4516/08, 48 h
Staphylococcus aureus [13] = assay: Antimicrobial activity against methicillin-resistant Staphylococcus aureus H 5996/08 after 48 hrs by broth microdilution method; format: functional; conditions: H 5996/08, 48 h
Nakaseomyces glabratus [14] = assay: Antimicrobial activity against Candida glabrata 20/I after 24 hrs by broth microdilution test; format: functional
Trichosporon beigelii [15] = assay: Antimicrobial activity against Trichosporon beigelii 1188 after 24 hrs by broth microdilution test; format: functional; conditions: Trichosporon beigelii, 1188, 24 h
[16] = test system: Trichophyton mentagrophytes; assay: Antimicrobial activity against Trichophyton mentagrophytes 445 after 120 hrs by broth microdilution test; format: functional; conditions: Trichophyton mentagrophytes, 445, 120 h
Candida tropicalis [17] = assay: Antimicrobial activity against Candida tropicalis 156 after 48 hrs by broth microdilution test; format: functional; conditions: Candida tropicalis, 156, 48 h
Candida albicans [18] = assay: Antimicrobial activity against Candida albicans ATCC 44859 after 48 hrs by broth microdilution test; format: functional; conditions: ATCC 44859, 48 h
Pichia kudriavzevii [19] = assay: Antimicrobial activity against Candida krusei ATCC 6258 after 48 hrs by broth microdilution test; format: functional; conditions: ATCC 6258, 48 h
Nakaseomyces glabratus [20] = assay: Antimicrobial activity against Candida glabrata 20/I after 48 hrs by broth microdilution test; format: functional
Trichosporon beigelii [21] = assay: Antimicrobial activity against Trichosporon beigelii 1188 after 48 hrs by broth microdilution test; format: functional; conditions: Trichosporon beigelii, 1188, 48 h
Lichtheimia corymbifera [22] = assay: Antimicrobial activity against Absidia corymbifera 272 after 48 hrs by broth microdilution test; format: functional; conditions: Lichtheimia corymbifera, 272, 48 h
Aspergillus fumigatus [23] = assay: Antimicrobial activity against Aspergillus fumigatus 231 after 48 hrs by broth microdilution test; format: functional; conditions: Aspergillus fumigatus, 231, 48 h

Row | Compound | MIC50 [1] | MIC80 (Candida albicans [2]) | MIC90 (Staphylococcus aureus [3]) | MIC90 [4] | logP [5] | MIC80 (Candida tropicalis [6]) | MIC50 (Aspergillus fumigatus [7]) | MIC50 (Lichtheimia corymbifera [8]) | MIC90 (Staphylococcus aureus [9]) | MIC90 [10] | MIC80 (Pichia kudriavzevii [11]) | MIC90 (Staphylococcus aureus [12]) | MIC90 (Staphylococcus aureus [13]) | MIC80 (Nakaseomyces glabratus [14]) | MIC80 (Trichosporon beigelii [15]) | other results
1 | Oc1ccccc1/C=C/c1ccc2ccccc2n1 | > 125 µM | > 125 µM | > 250 µM | > 250 µM | 4.34 | > 125 µM | > 125 µM | > 125 µM | > 250 µM | > 500 µM | > 125 µM | > 250 µM | > 250 µM | > 125 µM | > 125 µM | 
2 | Oc1cccc2ccc(/C=C/c3ccccc3Cl)nc12 | > 500 µM | > 500 µM | > 500 µM | > 500 µM | 4.9 | > 500 µM | > 500 µM | > 500 µM | > 500 µM | > 500 µM | > 500 µM | > 500 µM | > 500 µM | > 500 µM | > 500 µM | 
3 | Clc1ccccc1/C=C/c1ccc2ccccc2n1 | > 500 µM | > 500 µM | > 500 µM | > 500 µM | 5.25 | > 500 µM | > 500 µM | > 500 µM | > 500 µM | > 500 µM | > 500 µM | > 500 µM | > 500 µM | > 500 µM | > 500 µM | 
4 | CCOc1ccc(/C=C/c2ccc3ccccc3n2)cc1 | > 500 µM | > 500 µM | > 500 µM | > 500 µM | 4.61 | > 500 µM | > 500 µM | > 500 µM | > 500 µM | > 500 µM | > 500 µM | > 500 µM | > 500 µM | > 500 µM | > 500 µM | 
5 | Clc1ccccc1/C=C/c1ccc2cccc(Cl)c2n1 | > 500 µM | > 500 µM | > 500 µM | > 500 µM | 5.85 | > 500 µM | > 500 µM | > 500 µM | > 500 µM | > 500 µM | > 500 µM | > 500 µM | > 500 µM | > 500 µM | > 500 µM | 
6 | Oc1ccc(/C=C/c2ccc3cccc(O)c3n2)c(O)c1 | 31.2 µM (≈ 8.73 µg/mL) | 125 µM (≈ 34.9 µg/mL) | 31.2 µM (≈ 8.73 µg/mL) | 250 µM (≈ 69.8 µg/mL) | 3.56 | > 125 µM | 125 µM (≈ 34.9 µg/mL) | > 125 µM | 15.6 µM (≈ 4.36 µg/mL) | 125 µM (≈ 34.9 µg/mL) | 62.5 µM (≈ 17.5 µg/mL) | 31.2 µM (≈ 8.73 µg/mL) | 62.5 µM (≈ 17.5 µg/mL) | 62.5 µM (≈ 17.5 µg/mL) | 62.5 µM (≈ 17.5 µg/mL) | MIC50 [16]: 62.5 µM (≈ 17.5 µg/mL); MIC80 (Candida tropicalis [17]): > 125 µM; MIC80 (Candida albicans [18]): > 125 µM; MIC80 (Pichia kudriavzevii [19]): 125 µM (≈ 34.9 µg/mL); MIC80 (Nakaseomyces glabratus [20]): 125 µM (≈ 34.9 µg/mL); MIC80 (Trichosporon beigelii [21]): 125 µM (≈ 34.9 µg/mL); MIC50 (Lichtheimia corymbifera [22]): > 125 µM; MIC50 (Aspergillus fumigatus [23]): 125 µM (≈ 34.9 µg/mL)
7 | CCOc1ccccc1/C=C/c1ccc2cccc(O)c2n1 | > 500 µM | > 500 µM | > 500 µM | > 500 µM | 4.55 | > 500 µM | > 500 µM | > 500 µM | > 500 µM | > 500 µM | > 500 µM | > 500 µM | > 500 µM | > 500 µM | > 500 µM | 
8 | CCOc1ccc(/C=C/c2ccc3cccc(O)c3n2)cc1 | > 500 µM | > 500 µM | > 500 µM | > 500 µM | 4.55 | > 500 µM | > 500 µM | > 500 µM | > 500 µM | > 500 µM | > 500 µM | > 500 µM | > 500 µM | > 250 µM | > 250 µM | 
9 | Oc1c(Cl)cc(Cl)c2ccc(/C=C/c3ccccc3Cl)nc12 |  |  |  |  | 6.02 |  |  |  |  |  |  |  |  |  |  | 
10 | Oc1ccccc1/C=C/c1ccc2c(Cl)cc(Cl)c(O)c2n1 |  |  |  |  | 5.07 |  |  |  |  |  |  |  |  |  |  | 

Source: ChEMBL document CHEMBL2203120, “Contribution to investigation of antimicrobial activity of styrylquinolines” (Bioorg Med Chem, 2012)
